Eleven compounds from patent US9109048B2, “Inhibition of tumor growth” (priority 1998, dated 2015) can be followed below.

Common to all, as to type: cell-based
One assay has as its system human red blood cells. The assay is described as follows: Hemolytic assay. The method, then: The hemolytic activities of the peptides were determined using fresh human red blood cells. 8 ml blood was taken from a healthy person. 4 ml blood was transferred to a polycarbonate tube containing heparin to a final concentration of 10 U/ml, and the remaining 4 ml blood was transferred to a glass tube containing EDTA with final concentration of 15% EDTA. The erythrocytes were isolated from heparin-treated blood by centrifugation in 1500 rpm for 10 min and washed three times with phosphate-buffered saline (PBS) to remove plasma and buffy coat. The cell pellet was resuspended in PBS to make the final volume of 4 ml. The peptide was diluted to a concentration of 2 mg/ml and 0.1 mg/ml. The peptide was further diluted to the concentrations as stated in Table 1. For each tube PBS was added first, then RBCs and peptide solutions. The hematocrit in the blood treated with EDTA was determined after 30 min with Sysmex K-1000, and the resuspended RBCs were diluted into 10% hematocrit. RBCs in PBS (1%) with and without peptides (Table 18) were incubated in a shaker at 37° for 1 hour and then centrifuged at 4000 rpm for 5 min. The supernatant were carefully transferred to new polycarbonate tubes and the absorbance of the supernatant was measured at 540 nm. Baseline hemolysis was hemoglobin released in the presence of PBS, and 100% hemolysis was hemoglobin released in the presence of 0.1% Triton X-100.

The subject of assay [1] is Staphylococcus aureus ATCC 25923. Description: MIC (minimum inhibitory concentration) test, microdilution. The method, then:
(§1) The bacterial strains used were: Escherichia coli ATCC 25922 and Staphylococcus aureus ATCC 25923. All strains were stored at −70° C. The bacteria were grown in 2% Bacto Peptone water (Difco 1807-17-4). All tests were performed with bacteria in mid-logarithmic growth phase. Determination of the minimum inhibitory concentration (MIC) of the peptides for bacterial strains were performed in 1% Bacto Peptone water. A standard microdilution technique with an inoculum of 2×10^6 CFU/ml was used. All assays were performed in triplets. Since the peptides are positively charged and therefore could adhere to the plastic wells, we controlled the actual concentration of the peptides in the solution by HPLC. There was no difference between the concentration of the peptides before or after adding the solution to the plastic wells.

The subject of assay [2] is MRSA (methicillin resistant S. aureus). The method, then: as §1
(§2) Table 15 below gives the antibacterial activity and toxicity data for some preferred peptides of the invention. MRSA is methicillin resistant S. aureus and MRSE is methicilin resistant S. epidermidis.

Assay [3] has as its system Escherichia coli ATCC 25922. The assay is described as follows: MIC (minimum inhibitory concentration) test, microdilution. The method, then: as §1
The subject of assay [4] is MRSE (methicilin resistant S. epidermidis). The method, then:
as §1, §2

The mark [5] stands for this setting: Table 16, peptides with D-amino acids.

In brackets after ≈: the same amount, converted by molar mass. Several values for one entry are separate records, joined by “and”; a condition that tells them apart may be missing. Equal entries are not always repeated. Where two headings read alike, the source gives them in different places. Square brackets hold non-standard residues; d marks the D form. Ends that are not written are not given here. Peptide text beside a SMILES is read from it. Orn = NCCC[C@H](N)C(=O)O

Take `CSCC[C@H](NC(=O)[C@H](CCCN)NC(=O)[C@H](Cc1c[nH]c2ccccc12)NC(=O)[C@H](C)NC(=O)[C@H](Cc1c[nH]c2ccccc12)NC(=O)[C@H](CCCN)NC(=O)[C@H](Cc1ccccc1)NC(=O)[C@H](C)NC(=O)[C@H](CCCN)NC(=O)[C@H](CCCN)NC(=O)[C@H](Cc1c[nH]c2ccccc12)NC(=O)[C@H](C)NC(=O)[C@@H]1CCCN1)C(=O)N[C@@H](CC(C)C)C(=O)N[C@@H](CCCN)C(=O)N[C@@H](CCCN)C(=O)N[C@@H](C)C(=O)N[C@@H](C)C(=O)O` (H-PAW[Orn][Orn]AF[Orn]WAW[Orn]ML[Orn][Orn]AA-OH; N-terminus assumed): the “EC 50 (toxicity, hemolysis)” value with human red blood cells (Table 15) turned out to be 425 µg/mL (≈ 202 µM). For the same compound, in the assay with human red blood cells (red cells of human), the concentration for a half-maximal effect (EC50) is 202 µM. Also, the “MIC S. aureus” value in assay [1] (ATCC 25923) is 1.2 µM; in assay [1] (Table 15) it was 2.5 µg/mL. For the same compound, the figures for the “MIC MRSA” value in assay [2] (Table 15) and in assay [2] (methicillin resistant) were 2.5 µg/mL and 1.2 µM, respectively.
In the assay on human red blood cells (red cells of human), `CSCC[C@H](NC(=O)[C@H](CCCNC(=N)N)NC(=O)[C@H](Cc1c[nH]c2ccccc12)NC(=O)[C@H](C)NC(=O)[C@H](Cc1c[nH]c2ccccc12)NC(=O)[C@H](CCCNC(=N)N)NC(=O)[C@H](CCCNC(=N)N)NC(=O)[C@H](C)NC(=O)[C@H](CCCCN)NC(=O)[C@H](Cc1ccccc1)NC(=O)[C@H](Cc1c[nH]c2ccccc12)NC(=O)[C@H](C)NC(=O)[C@@H]1CCCN1)C(=O)N[C@@H](CCCCN)C(=O)N[C@@H](CCCCN)C(=O)N[C@@H](CC(C)C)C(=O)N[C@@H](C)C(=O)N[C@@H](C)C(=O)O` [LFB 14-31 A2,6,10,17] returned a concentration giving a half-maximal response (EC50) of over 440 µM. In addition, the “EC 50 (toxicity, hemolysis)” value with human red blood cells (red cells of human) is over 1000 µg/mL. In addition, the “MIC E. coli” value in assay [3] (ATCC 25922) stood at 8.8 µM; in assay [3] (Table 8), 20 µg/mL; in assay [3] (Table 15) it was 20.0 µg/mL. Moreover, the results for the “MIC MRSA” value in assay [2] (Table 15) and in assay [2] (methicillin resistant) were 5.0 µg/mL and 2.2 µM, respectively.
Regarding `CSCC[C@H](NC(=O)[C@H](CCCNC(=N)N)NC(=O)[C@H](Cc1ccc(-c2ccccc2)cc1)NC(=O)[C@H](CCC(N)=O)NC(=O)[C@H](Cc1c(S(=O)(=O)c2c(C)c(C)c3c(c2C)CCC(C)(C)O3)[nH]c2ccccc12)NC(=O)[C@H](CCCNC(=N)N)NC(=O)[C@H](CCCNC(=N)N)NC(=O)[C@H](CSCNC(C)=O)NC(=O)[C@H](CCCCN)NC(=O)[C@@H](N)Cc1ccccc1)C(=O)N[C@@H](CCCCN)C(=O)N[C@@H](CCCCN)C(=O)N[C@@H](CC(C)C)C(=O)NCC(=O)N[C@@H](C)C(=O)O` [LFB Bip8 PMC], the “MIC E. coli” value in assay [3] (Table 9) was 25 µg/mL; in assay [3] (Table 15) it was 15.0 μg/ml and 6.3 μM. Further, the “MIC S. aureus” value in assay [1] (Table 9) was 5 µg/mL; in assay [1] (Table 15), 2.5 μg/ml and 1.1 μM. Besides, the “MIC MRSA” value in assay [2] (Table 15) is 2.5 µg/mL.
For `CSCC[C@H](NC(=O)[C@H](CCCNC(=N)N)NC(=O)[C@H](Cc1ccc2ccccc2c1)NC(=O)[C@H](CCC(N)=O)NC(=O)[C@H](Cc1ccc2ccccc2c1)NC(=O)[C@H](CCCNC(=N)N)NC(=O)[C@H](CCCNC(=N)N)NC(=O)[C@H](CSCNC(C)=O)NC(=O)[C@H](CCCCN)NC(=O)[C@@H](N)Cc1ccccc1)C(=O)N[C@@H](CCCCN)C(=O)N[C@@H](CCCCN)C(=O)N[C@@H](CC(C)C)C(=O)NCC(=O)N[C@@H](C)C(=O)O` [LFB Nal6,8], the “EC 50 (toxicity, hemolysis)” value in the assay with human red blood cells (red cells of human) was over 1000 µg/mL. Further, the entries for the “MIC E. coli” value in assay [3] (Table 9) and in assay [3] (Table 15) were 10 µg/mL and 10.0 µg/mL, respectively. The “MIC S. aureus” value is 20 µg/mL in assay [1] (Table 9) and 20.0 µg/mL in assay [1] (Table 15). Further, in assay [2] (Table 15), the “MIC MRSA” value was 5.0 µg/mL.
`CSCC[C@H](NC(=O)[C@H](CCCNC(=N)N)NC(=O)[C@H](Cc1c[nH]c2ccccc12)NC(=O)[C@H](CCC(N)=O)NC(=O)[C@H](Cc1c(S(=O)(=O)c2c(C)c(C)c3c(c2C)CCC(C)(C)O3)[nH]c2ccccc12)NC(=O)[C@H](CCCNC(=N)N)NC(=O)[C@H](CCCNC(=N)N)NC(=O)[C@H](CSCNC(C)=O)NC(=O)[C@H](CCCCN)NC(=O)[C@@H](N)Cc1ccccc1)C(=O)N[C@@H](CCCCN)C(=O)N[C@@H](CCCCN)C(=O)N[C@@H](CC(C)C)C(=O)NCC(=O)N[C@@H](C)C(=O)O` [LFB PMC6]: in the assay with human red blood cells (red cells of human), the “EC 50 (toxicity, hemolysis)” value was over 1000 µg/mL. Further, the “MIC E. coli” value in assay [3] (ATCC 25922) turned out to be 4.3 µM; in assay [3] (Table 13), 10 µg/mL; in assay [3] (Table 15), 10.0 µg/mL. Also, in assay [1] (Table 15), the “MIC S. aureus” value is 2.5 µg/mL. The “MIC MRSA” value in assay [2] (Table 15) was determined as 2.5 µg/mL; in assay [2] (methicillin resistant), 1.1 µM.
`C[C@@H](NC(=O)[C@H](Cc1c[nH]c2ccccc12)NC(=O)[C@H](CCCNC(=N)N)NC(=O)[C@H](Cc1c[nH]c2ccccc12)NC(=O)[C@@H](C)NC(=O)[C@@H](CCCNC(=N)N)NC(=O)[C@H](N)Cc1ccc(O)cc1)C(=O)N[C@@H](Cc1c[nH]c2ccccc12)C(=O)N[C@@H](CCCNC(=N)N)C(=O)N[C@@H](Cc1c[nH]c2ccccc12)C(=O)N[C@@H](CCCNC(=N)N)C(N)=O` [SEQ ID NO: 34, tyr-arg-ala-TRP-ARG-TRP-ala-TRP-ARG-TRP-ARG-CONH2] (H-[dY][dR][dA]WRW[dA]WRWR-NH2; N-terminus assumed): the “MIC E. coli” value in assay [3] (setting [5]) was found to be 7.5 µg/mL. Besides, in assay [1] (Table 16), the “MIC S. aureus” value was determined as 5 µg/mL. Further, in assay [2] (Table 16), the “MIC MRSA” value stood at 2.5 µg/mL.
On to “H-FKWRRWQWRMKKLWA-OH [LFBW3,14, H2N-Phe-Lys-Trp-Arg-Arg-Trp-Gln-Trp-Arg-Met-Lys-Lys-Leu-Trp-Ala-COOH]”, for which the “EC 50 (toxicity, hemolysis)” value in the assay with human red blood cells (red cells of human) was over 1000 µg/mL. Also, the “MIC E. coli” value in assay [3] (ATCC 25922) stood at 4.5 µM; in assay [3] (Table 14), 10 µg/mL; in assay [3] (Table 15, 14) it was 10.0 µg/mL. Moreover, in assay [1] (Table 15, 14), the “MIC S. aureus” value came out at 2.5 µg/mL. Besides, the “MIC MRSE” value is 2.5 µg/mL in assay [4] (Table 15, 14) and 1.1 µM in assay [4] (methicilin resistant). The “MIC MRSA” value in assay [2] (Table 15, 14) worked out at 2.5 µg/mL; in assay [2] (methicillin resistant), 1.1 µM.
“RRWYRWWR-NH2 [LFM 17-24 R1,2,8 W3,7Y4NH2]”: the EC50 with human red blood cells (red cells of human) was over 733 µM. Besides, the “EC 50 (toxicity, hemolysis)” value in the assay on human red blood cells (red cells of human) is over 1000 µg/mL. Further, the entries for the “MIC E. coli” value in assay [3] (ATCC 25922), in assay [3] (Table 12) and in assay [3] (Table 15) were 3.7 µM, 5 µg/mL and 5.0 µg/mL, respectively. Besides, the “MIC MRSE” value was 2.5 µg/mL in assay [4] (Table 15) and 1.8 µM in assay [4] (methicilin resistant). For the same compound, the entries for the “MIC MRSA” value in assay [2] (Table 15) and in assay [2] (methicillin resistant) were 1.0 µg/mL and 0.7 µM, respectively.
On to “RWWRYWR-NH2 [LFM 18-24 R1,7 W2,3,6Y5NH2, ARG-TRP-TRP-ARG-TYR-TRP-ARG-CONH2]”, for which, in the assay on human red blood cells (red cells of human), the concentration for a half-maximal effect (EC50) is over 829 µM. Also, the “EC 50 (toxicity, hemolysis)” value in the assay with human red blood cells (red cells of human) is over 1000 µg/mL. In addition, the “MIC E. coli” value in assay [3] (ATCC 25922) worked out at 8.3 µM; in assay [3] (Table 12), 10 µg/mL; in assay [3] (Table 15), 10.0 µg/mL; in assay [3] (setting [5]) it was 10 µg/mL. The “MIC S. aureus” value in assay [1] (ATCC 25923) lay in the range of 0.4 to 0.8 µM. Moreover, the “MIC MRSE” value was 1.0 µg/mL in assay [4] (Table 15) and 0.8 µM in assay [4] (methicilin resistant).
As to “YRAWRWAWRWR-NH2 [LFB 17-27 A3,7 R2,11 W4,10 Y1 NH2]”, the entries for the “MIC E. coli” value in assay [3] (ATCC 25922) and in assay [3] (Table 15) were 5.9 µM and 10.0 µg/mL, respectively. The “MIC S. aureus” value is 1.5 µM in assay [1] (ATCC 25923) and 2.5 µg/mL in assay [1] (Table 15). Further, the “MIC MRSE” value was 2.5 µg/mL in assay [4] (Table 15) and 1.5 µM in assay [4] (methicilin resistant).
With “YRWWRWARRW-NH2 [LFM 17-26 A7R2,8,9W3,4, 10Y1NH2]”, the entries for the “MIC E. coli” value in assay [3] (Table 12) and in assay [3] (Table 15) were 10 µg/mL and 10.0 µg/mL, respectively. In assay [1] (Table 15), the “MIC S. aureus” value was found to be 1.0 µg/mL. Also, the “MIC MRSA” value in assay [2] (Table 15) amounted to 2.5 µg/mL.
